According to patent publication US20240400553A1, “AMINE BASED MATRIPTASE 2 INHIBITORS AND USES THEREOF” (Disc Medicine, Inc., priority 2023, published 2024):
pKi: −log10 of the molar value.

Biological target: T1, Human Recombinant Matriptase 2 (Homo sapiens, UniProt Q8IU80)
T1 construct: made in house
T1 sequence (Q8IU80 1-811): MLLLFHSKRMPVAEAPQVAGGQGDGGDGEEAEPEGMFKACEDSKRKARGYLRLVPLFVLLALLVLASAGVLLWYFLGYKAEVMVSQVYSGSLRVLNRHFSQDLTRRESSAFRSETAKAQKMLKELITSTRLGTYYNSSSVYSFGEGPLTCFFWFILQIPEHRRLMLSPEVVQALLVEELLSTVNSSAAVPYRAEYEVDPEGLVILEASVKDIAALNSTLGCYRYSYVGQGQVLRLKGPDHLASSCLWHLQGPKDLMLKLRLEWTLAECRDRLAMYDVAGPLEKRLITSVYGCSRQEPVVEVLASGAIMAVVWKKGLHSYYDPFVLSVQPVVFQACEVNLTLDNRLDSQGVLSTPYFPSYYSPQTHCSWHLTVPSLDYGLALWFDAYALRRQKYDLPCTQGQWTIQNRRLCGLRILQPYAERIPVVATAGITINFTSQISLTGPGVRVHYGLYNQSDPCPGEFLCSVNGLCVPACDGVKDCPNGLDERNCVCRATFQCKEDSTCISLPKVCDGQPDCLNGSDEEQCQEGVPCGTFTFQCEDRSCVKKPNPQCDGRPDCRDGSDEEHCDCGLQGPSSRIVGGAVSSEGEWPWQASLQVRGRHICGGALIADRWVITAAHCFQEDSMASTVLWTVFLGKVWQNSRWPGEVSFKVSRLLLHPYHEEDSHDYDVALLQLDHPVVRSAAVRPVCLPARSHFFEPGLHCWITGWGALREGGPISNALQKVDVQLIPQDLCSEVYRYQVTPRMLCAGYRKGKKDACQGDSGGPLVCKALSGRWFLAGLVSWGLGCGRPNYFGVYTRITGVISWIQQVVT
Assay: Matriptase 2 inhibition, fluorescence based assay (Method I)
Assay type: biochemical
Conditions: Table A; Ki of Matriptase-2 given as class symbols; read-out: Mat-2 Ki
Procedure, shortened: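 Fluorogenic readout (Ex 360/Em 480 nm) taken 60 min after adding 62 μM Boc-Gln-Ala-Arg-AMC, following 30-min enzyme–compound preincubation at 25 °C. Conditions: 3.5 nM in-house enzyme, pH 7.5 Tris/NaCl/gelatin buffer, 1% DMSO; percent inhibition versus concentration fitted by variable-slope sigmoidal regression.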

| SMILES | pKi |
| --- | --- |
| NCc1ccc2cc(C(=O)O)n(Cc3cc(NS(=O)(=O)CCCN4CCCC4)cc4ccccc34)c2n1 [Compound 232, 6-(aminomethyl)-1-({3-[3-(pyrrolidin-1-yl)-propanesulfonamido]-naphthalen-1-yl}methyl)-1H-pyrrolo[2,3-b]pyr-idine-2-carboxylic acid] | 6.30 to 7.00 |
| NCc1ccc2cc(C(=O)O)n(Cc3cc(NS(=O)(=O)Cc4ccno4)cc4ccccc34)c2n1 [Compound 233, 6-(aminomethyl)-1-({3-[(1,2-oxazol-5-yl)-methanesulfonamido]-naphthalen-1-yl}methyl)-1H-pyrrolo[2,3-b]pyr-idine-2-carboxylic acid] | 6.30 to 7.00 |
| COCCN1CCN(CCS(=O)(=O)Nc2cc(Cn3c(C(=O)O)cc4ccc(CN)nc43)c3ccccc3c2)CC1 [Compound 234, 6-(aminomethyl)-1-[(3-{2-[4-(2-methoxyethyl)-piperazin-1-yl]ethane-sulfonamido}naphthalen-1-yl)methyl]-1H-pyr-rolo[2,3-b]pyridine-2-carboxylic acid] | 6.30 to 7.00 |
| CN1CCC[C@H]1CCS(=O)(=O)Nc1cc(Cn2c(C(=O)O)cc3ccc(CN)nc32)c2ccccc2c1 [Compound 235, 6-(aminomethyl)-1-[(3-{2-[(2S)-1-methylpyr-rolidin-2-yl]ethanesul-fonamido}naphthalen-1-yl)methyl]-1H-pyrrolo-[2,3-b]pyridine-2-car-boxylic acid] | 6.30 to 7.00 |
| NCc1ccc2cc(C(=O)O)n(Cc3cc(NS(=O)(=O)Cc4ccco4)cc4ccccc34)c2n1 [Compound 236, 6-(aminomethyl)-1-({3-[(furan-2-yl)methane-sulfonamido]naphthalen-1-yl}methyl)-1H-pyr-rolo[2,3-b]pyridine-2-carboxylic acid] | 6.30 to 7.00 |
| CN1CCC(CS(=O)(=O)Nc2cc(Cn3c(C(=O)O)cc4ccc(CN)nc43)c3ccccc3c2)CC1 [Compound 237, 6-(aminomethyl)-1-({3-[(1-methylpiperidin-4-yl)methanesulfonamido]-naphthalen-1-yl}methyl)-1H-pyrrolo[2,3-b]pyr-idine-2-carboxylic acid] | 6.30 to 7.00 |
| Cc1cccc(CS(=O)(=O)Nc2cc(Cn3c(C(=O)O)cc4ccc(CN)nc43)c3ccccc3c2)c1 [Compound 238, 6-(aminomethyl)-1-({3-[(3-methylphenyl)meth-anesulfonamido]naph-thalen-1-yl}methyl)-1H-pyrrolo[2,3-b]pyridine-2-carboxylic acid] | 6.30 to 7.00 |
| NCc1ccc2cc(C(=O)O)n(Cc3cc(NS(=O)(=O)Cc4cscn4)cc4ccccc34)c2n1 [Compound 239, 6-(aminomethyl)-1-({3-[(1,3-thiazol-4-yl)meth-anesulfonamido]naph-thalen-1-yl}methyl)-1H-pyrrolo[2,3-b]pyridine-2-carboxylic acid] | 6.30 to 7.00 |
| NCc1ccc2cc(C(=O)O)n(Cc3cc(NS(=O)(=O)C4CCOCC4)cc4ccccc34)c2n1 [Compound 240, 6-(aminomethyl)-1-{[3-(oxane-4-sulfonamido)-naphthalen-1-yl]methyl}-1H-pyrrolo[2,3-b]pyr-idine-2-carboxylic acid] | 6.30 to 7.00 |
| CCOC(=O)c1cc2ccc(CN)nc2n1Cc1cc(NS(=O)(=O)CC2CCNCC2)cc2ccccc12 [Compound 241, ethyl 6-(aminomethyl)-1-({3-[(piperidin-4-yl)-methanesulfonamido]-naphthalen-1-yl}methyl)-1H-pyrrolo[2,3-b]pyr-idine-2-carboxylate] | 6.30 to 7.00 |
| NCc1ccc2cc(C(=O)O)n(Cc3cc(NS(=O)(=O)Cc4cccnc4)cc4ccccc34)c2n1 [Compound 242, 6-(aminomethyl)-1-({3-[(pyridin-3-yl)methane-sulfonamido]naphthalen-1-yl}methyl)-1H-pyr-rolo[2,3-b]pyridine-2-carboxylic acid] | 6.30 to 7.00 |
| Cc1conc1CS(=O)(=O)Nc1cc(Cn2c(C(=O)O)cc3ccc(CN)nc32)c2ccccc2c1 [Compound 243, 6-(aminomethyl)-1-({3-[(4-methyl-1,2-oxazol-3-yl)methanesulfonamido]-naphthalen-1-yl}methyl)-1H-pyrrolo[2,3-b]pyr-idine-2-carboxylic acid] | 6.30 to 7.00 |
| Cn1cc(CS(=O)(=O)Nc2cc(Cn3c(C(=O)O)cc4ccc(CN)nc43)c3ccccc3c2)cn1 [Compound 244, 6-(aminomethyl)-1-({3-[(1-methyl-1H-pyrazol-4-yl)methanesulfonamido]-naphthalen-1-yl}methyl)-1H-pyrrolo[2,3-b]pyr-idine-2-carboxylic acid] | 6.30 to 7.00 |
| NCc1ccc2cc(C(=O)O)n(Cc3cc(NS(=O)(=O)Cc4ccncc4)cc4ccccc34)c2n1 [Compound 245, 6-(aminomethyl)-1-({3-[(pyridin-4-yl)methane-sulfonamido]naphthalen-1-yl}methyl)-1H-pyr-rolo[2,3-b]pyridine-2-carboxylic acid] | 6.30 to 7.00 |
| NCc1ccc2cc(C(=O)O)n(Cc3cc(NS(=O)(=O)Cc4c(F)cccc4F)cc4ccccc34)c2n1 [Compound 246, 6-(aminomethyl)-1-({3-[(2,6-difluorophenyl)-methanesulfonamido]-naphthalen-1-yl}meth-yl)-1H-pyrrolo[2,3-b]-pyridine-2-carboxylic acid] | 6.30 to 7.00 |
| COc1ccc(Cl)cc1CS(=O)(=O)Nc1cc(Cn2c(C(=O)O)cc3ccc(CN)nc32)c2ccccc2c1 [Compound 247, 6-(aminomethyl)-1-({3-[(5-chloro-2-methoxy-phenyl)methanesulfon-amido]naphthalen-1-yl}-methyl)-1H-pyrrolo[2,3-b]pyridine-2-carboxylic acid] | 5.52 to 6.30 |
| CN1CCC(COC(=O)c2cc3ccc(CN)nc3n2Cc2cc(NS(=O)(=O)CC34CC(F)(C3)C4)cc3ccccc23)CC1 [Compound 248, (1-methylpiperidin-4-yl)-methyl 6-(aminomethyl)-1-{[3-({3-fluorobicyclo-[1.1.1]pentan-1-yl}-methanesulfonamido)-naphthalen-1-yl]methyl}-1H-pyrrolo[2,3-b]pyr-idine-2-carboxylate] | 5.52 to 6.30 |
| CN1CCC(COC(=O)c2cc3ccc(CN)nc3n2Cc2cc(NS(=O)(=O)CC3CCNCC3)cc3ccccc23)CC1 [Compound 249, (1-methylpiperidin-4-yl)methyl 6-(amino-methyl)-1-({3-{(piperi-din-4-yl)methanesul-fonamido]naphthalen-1-yl}methyl)-1H-pyr-rolo[2,3-b]pyridine-2-carboxylate] | 5.52 to 6.30 |
| Cc1cc(CS(=O)(=O)Nc2cc(Cn3c(C(=O)O)cc4ccc(CN)nc43)c3ccccc3c2)no1 [Compound 250, 6-(aminomethyl)-1-({3-[(5-methyl-1,2-oxazol-3-yl)methanesulfon-amido]naphthalen-1-yl}-methyl)-1H-pyrrolo[2,3-b]pyridine-2-carboxylic acid] | 5.52 to 6.30 |
| NCc1ccc2cc(C(=O)O)n(Cc3cc(NS(=O)(=O)Cc4c(Cl)cccc4Cl)cc4ccccc34)c2n1 [Compound 251, 6-(aminomethyl)-1-({3-[(2,6-dichlorophenyl)-methanesulfonamido]-naphthalen-1-yl}methyl)-1H-pyrrolo[2,3-b]pyr-idine-2-carboxylic acid] | 5.52 to 6.30 |
| NCc1ccc2cc(C(=O)O)n(Cc3cc(CS(=O)(=O)Cc4ccccc4)cc4ccccc34)c2n1 [Compound 252, 6-(aminomethyl)-1-{[3-(phenylmethanesulfon-ylmethyl)naphthalen-1-yl]methyl}-1H-pyrrolo-[2,3-b]pyridine-2-car-boxylic acid] | 5.52 to 6.30 |
| COCCN1CCC(CS(=O)(=O)Nc2cc(Cn3c(C(=O)OCC4CCN(C)CC4)cc4ccc(CN)nc43)c3ccccc3c2)CC1 [Compound 253] | 5.52 to 6.30 |
| Cc1nc(CS(=O)(=O)Nc2cc(Cn3c(C(=O)O)cc4ccc(CN)nc43)c3ccccc3c2)cs1 [Compound 256, 6-(aminomethyl)-1-({3-[(2-methyl-1,3-thiazol-4-yl)methanesulfon-amido]naphthalen-1-yl}-methyl)-1H-pyrrolo[2,3-b]pyridine-2-carboxylic acid] | 6.30 to 7.00 |
| COC(=O)NCCNC(=O)c1cc2ccc(CN)nc2n1Cc1cc(NS(=O)(=O)CC[C@@H]2CCCN2)cc2ccccc12 [Compound 258, methyl N-(2-{[6-(amino-methyl)-1-[(3-{2-[(2S)-pyrrolidin-2-yl]ethane-sulfonamido}naphthalen-1-yl)methyl]-1H-pyr-rolo[2,3-b]pyridin-2-yl]-formamido}ethyl)car-bamate] | 6.30 to 7.00 |
| NCc1ccc2cc(C(=O)O)n(Cc3cc(NS(=O)(=O)[C@H]4CCNC4)cc4ccccc34)c2n1 [Compound 259, 6-(aminomethyl)-1-({3-[(3S)-pyrrolidine-3-sul-fonamido]naphthalen-1-yl}methyl)-1H-pyrrolo-[2,3-b]pyridine-2-car-boxylic acid] | 6.30 to 7.00 |
